Patent US6846664B2, “Process for the preparation of protease inhibitor using novel alkalothermophilic bacillus sp” (priority 2000, dated 2005)
Ends that are not written are not given here.

Key:
pepsin = pepsin (Homo sapiens, UniProt P0DJD8); assay: Assay of pepsin inhibition (casein substrate, pH 2.0, OD 280 nm); assay type: biochemical; settings: purified RP-HPLC compound
Description: In a feature of the invention, the pepsin inhibitor was selectively purified by removing the high molecular weight compounds from the culture broth by treating it with activated charcoal. The charcoal treated broth was filtered through ultrafiltration membrane and concentrated by lyophilization. The concentrated inhibitor sample was loaded onto a reverse phase-high performance liquid chromatography column using a linear gradient of acetonitrile and triflouroacetate, and the peaks were checked for the inhibitor activity. […] This compound absorbs strongly at 210 nm. The compound was collected and checked as a single purified peptide after loading onto the HPLC column. One unit of inhibitor is defined as the amount of inhibitor which inhibits the protease activity expressed in terms of decrease in optical density of 0.001 per minute.
The protease pepsin was incubated in KC1-HC1 buffer, 0.02 M, pH-2.0, containing the inhibitor in various molar ratios at 37° C. for 30 min. After incubation the residual activity was determined and compared with the controls incubated without the inhibitor.
For example—To 0.05 ml of 100 mg/ml of aqueous solution of pepsin, 0.1 ml of the inhibitor solution was added. […] Precipitated excess casein was removed by filtration after incubation for one hour and the optical density was measured at 280 nm. […]

Trichoderma reesei = assay: Antifungal activity assay (mycelial growth / spore germination); assay type: cell-based
Description: (§1) The fungal strains Trichoderma reesei (deposited at The National Collection for Industrial Micro-organisms, Pune India and bearing accession numbers NCIM 992, NCIM 1052- and NCIM 1186), Fusarium oxysporum (bearing accession numbers NCIM 1008, 1043, 1072), Aspergillus flavus (bearing accession numbers NCIM 535, 536, 538, 542), Aspergillus oryzae (bearing accession numbers NCIM 637, 643, 649, 1032), Fusarium moniliforme (bearing accession numbers NCIM 1099, 1100), Alternaria alternata (bearing accession numbers NCIM 887), Claviceps purpurea (bearing accession numbers NCIM 1046), Curvularia fallax (bearing accession numbers NCIM 714), Curvularia lunata (NCIM 716), Curvularia cymbopogonis (bearing accession numbers NCIM 695) and Penicillium fellatanum (bearing accession numbers NCIM 1227) were grown on potato dextrose agar slants for 7-8 days. The said fungal strains have characteristics similar to the strains deposited at American Type Culture Collection, USA and bearing accession number as under: • Trichoderma reesei NCIM 992-ATCC No.13631 • Trichoderma reesei NCIM 1052-ATCC No.24449 • Trichoderma reesei NCIM 1186-ATCC No.26921 Fungal mycelium from the freshly grown culture was inoculated at the centre of petri plates containing potato dextrose agar medium and incubated till they form small circular growth. The time period for the vegetative growth of different fungus is different. On the periphery of the advancing fungal mycelia, four filter paper discs were impregnated at equal distances, with four different concentrations of the inhibitor sample. The plates were incubated at room temperature for 24-48 h to check the crescent zone of the retarded mycelial growth. For sporulating fungus the applicants also had checked the inhibition by spore suspension method. In this method the agar slants were incubated at room temperature till they sporulate. 4 ml of sterile distilled water was added aseptically to the agar slant and the spores were scrapped by using an inoculation loop. 1 ml of this suspension was mixed with 4 ml of malt extract, glucose, yeast extract, peptone media containing 0.4% agarose and poured onto the potato dextrose agar plate. This plate was incubated at room temperature for 4-10 h. Filter paper discs were impregnated and different concentrations of the inhibitor was added onto it. The plates were further incubated at room temperature for 24-48 h and the inhibition zone against the growth was checked. […] The advantages of the Invention are
(§2) Inhibition of growth of fungi by the inhibitor was studied using inhibition assays against mycelial growth and spore germination.
(§3) For example-In case of mycelial growth inhibition assay, fungal mycelium from freshly grown culture was inoculated at the center of potato dextrose agar plate and incubated at 28° C. for 48-72 hours. Sterile filter paper discs impregnated with different concentrations of the inhibitor were placed on the periphery of the growing fungal mycelium. The plates were incubated at 28° C. and the crescent zones of the retarded mycelial growth were observed. In case of inhibition assay against spore-germination, fungal spore suspension was made in malt extract, glucose, yeast extract and peptone (MGYP) liquid medium. To the spore suspension, various concentration of the inhibitor was added. The resulting suspension was incubated at 28° C. for 24 hours. The germination of the spores in presence and absence of the inhibitor were checked under inverted microscope. The minimum inhibitory does MID of several fungal strains are given below in the Table 2.

Fusarium oxysporum = assay: as above; assay type: cell-based
Description: as §1, §2, §3

Fusarium moniliforme = assay: as above; assay type: cell-based; settings: 28° C.
Description: as §1, §2, §3

Aspergillus oryzae = assay: as above; assay type: cell-based
Description: as §1, §2, §3

Alternaria alternata = assay: as above; assay type: cell-based
Description: as §1, §2, §3

Aspergillus flavus = assay: as above; assay type: cell-based
Description: as §1, §2, §3

Claviceps purpurea = assay: Mycelial growth inhibition, filter paper disc on potato dextrose agar; assay type: cell-based; settings: Claviceps purpurea NCIM 1046; room temperature 24-48 h
Description: as §1, with “are […]” for “are”

Curvularia lunata = assay: as above; assay type: cell-based; settings: Curvularia lunata NCIM 716; room temperature 24-48 h
Description: as §1, with “are […]” for “are”

Curvularia fallax = assay: as above; assay type: cell-based; settings: Curvularia fallax NCIM 714; room temperature 24-48 h
Description: as §1, with “are […]” for “are”

Curvularia cymbopogonis = assay: as above; assay type: cell-based; settings: Curvularia cymbopogonis NCIM 695; room temperature 24-48 h
Description: as §1, with “are […]” for “are”

Sequence of pepsin (P0DJD8 63-388): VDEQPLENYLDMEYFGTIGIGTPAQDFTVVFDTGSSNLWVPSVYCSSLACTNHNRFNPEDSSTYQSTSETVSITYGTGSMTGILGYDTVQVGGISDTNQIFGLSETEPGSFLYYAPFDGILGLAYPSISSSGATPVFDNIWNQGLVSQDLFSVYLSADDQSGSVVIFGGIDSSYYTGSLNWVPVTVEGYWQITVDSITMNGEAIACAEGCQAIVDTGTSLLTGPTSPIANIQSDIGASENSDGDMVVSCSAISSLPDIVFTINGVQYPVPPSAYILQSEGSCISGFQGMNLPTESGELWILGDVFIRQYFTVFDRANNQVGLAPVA

Q: With AGKKDDDDPPE [inhibitor] as the sequence, how does the “inhibition against pepsin (RP-HPLC peak)” value (pepsin) read?
A: showed the inhibition

Q: What about the “inhibition of mycelial growth” value (Trichoderma reesei; Trichoderma reesei NCIM 992, 1052, 1186, room temperature 24-48 h) of the same sequence?
A: strongly inhibit

Q: And the “MID (minimum inhibitory dose)” value (Trichoderma reesei; Trichoderma reesei, 28° C.)?
A: 0.292 mg

Q: And the “inhibition of mycelial growth” value (Fusarium oxysporum; Fusarium oxysporum NCIM 1008, 1072, room temperature 24-48 h)?
A: strongly inhibit

Q: What about the “MID (minimum inhibitory dose)” value (Fusarium oxysporum; Fusarium oxysporum, 28° C.) of the same sequence?
A: 2.300 mg

Q: What about the “MID (minimum inhibitory dose)” value (Fusarium moniliforme) of the same sequence?
A: 1.840 mg

Q: What about the “inhibition of mycelial growth” value (Aspergillus oryzae; Aspergillus oryzae NCIM 637, 643, room temperature 24-48 h) of the same sequence?
A: strongly inhibit

Q: What about the “MID (minimum inhibitory dose)” value (Aspergillus oryzae; Aspergillus oryzae, 28° C.) of the same sequence?
A: 1.147 mg

Q: And the “inhibition of mycelial growth” value (Alternaria alternata; Altemaria alternata NCIM 887, room temperature 24-48 h)?
A: strongly inhibit

Q: And the “MID (minimum inhibitory dose)” value (Alternaria alternata; Alternaria alternata, 28° C.)?
A: 0.582 mg

Q: What about the “inhibition of mycelial growth” value (Aspergillus flavus; Aspergillus flavus NCIM 535, 542, room temperature 24-48 h) of the same sequence?
A: strongly inhibit

Q: What about the “MID (minimum inhibitory dose)” value (Aspergillus flavus; Aspergillus flavus, 28° C.) of the same sequence?
A: 0.817 mg

Q: What about the “inhibition of mycelial growth” value (Claviceps purpurea) of the same sequence?
A: strongly inhibit

Q: And the “inhibition of mycelial growth” value (Curvularia lunata)?
A: strongly inhibit

Q: And the “inhibition of mycelial growth” value (Curvularia fallax)?
A: strongly inhibit

Q: And the “inhibition of mycelial growth” value (Curvularia cymbopogonis)?
A: strongly inhibit
